According to patent publication US11878975B2, “Substituted indole compounds useful as TLR inhibitors” (BRISTOL-MYERS SQUIBB COMPANY, priority 2017, dated 2024):
Each block holds one molecule with its values, some of them ahead of it.

Tests used:
Format in all cases: cell-based
[1] = target: T1, human TLR7 (Homo sapiens, UniProt Q9NYK1); test: TLR7 inhibition reporter assay (HEK-Blue cells, SEAP reporter, gardiquimod stimulation); conditions: HEK-Blue cells overexpressing human TLR7, SEAP reporter, gardiquimod 7.5 μM
T1 construct: host or cells: HEK-Blue cells
T1 sequence (Q9NYK1 27-1049): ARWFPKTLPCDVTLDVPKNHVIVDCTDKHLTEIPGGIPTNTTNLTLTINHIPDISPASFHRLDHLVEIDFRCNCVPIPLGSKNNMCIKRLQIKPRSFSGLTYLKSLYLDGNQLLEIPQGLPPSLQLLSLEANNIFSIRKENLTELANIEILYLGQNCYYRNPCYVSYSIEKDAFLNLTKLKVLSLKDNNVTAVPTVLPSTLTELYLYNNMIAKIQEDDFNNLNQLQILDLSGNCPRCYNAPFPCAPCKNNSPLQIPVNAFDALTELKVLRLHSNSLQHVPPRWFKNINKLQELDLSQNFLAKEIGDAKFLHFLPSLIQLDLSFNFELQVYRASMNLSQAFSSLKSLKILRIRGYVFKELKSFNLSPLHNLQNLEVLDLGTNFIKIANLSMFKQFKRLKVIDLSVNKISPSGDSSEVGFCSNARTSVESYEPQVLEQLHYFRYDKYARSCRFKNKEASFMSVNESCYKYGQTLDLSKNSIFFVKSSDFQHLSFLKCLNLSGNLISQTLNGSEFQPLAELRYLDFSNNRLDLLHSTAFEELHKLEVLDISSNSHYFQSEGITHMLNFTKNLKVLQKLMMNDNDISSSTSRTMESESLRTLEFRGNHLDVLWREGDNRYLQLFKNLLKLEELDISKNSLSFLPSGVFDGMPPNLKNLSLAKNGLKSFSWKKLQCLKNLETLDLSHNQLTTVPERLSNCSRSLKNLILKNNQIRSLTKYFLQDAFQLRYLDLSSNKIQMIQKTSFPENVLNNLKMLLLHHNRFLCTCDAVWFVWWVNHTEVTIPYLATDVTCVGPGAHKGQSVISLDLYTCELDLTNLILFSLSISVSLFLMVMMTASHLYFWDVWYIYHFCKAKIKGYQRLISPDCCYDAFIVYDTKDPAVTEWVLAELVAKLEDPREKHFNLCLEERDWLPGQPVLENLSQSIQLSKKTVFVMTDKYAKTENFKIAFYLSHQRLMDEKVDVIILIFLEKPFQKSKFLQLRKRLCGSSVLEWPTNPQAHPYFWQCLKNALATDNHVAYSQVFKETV
Summary of the method: (§1)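 HEK-Blue cells with NF-κB/AP-1-driven SEAP reporter, pre-treated 30 min at room temperature with compound (0.05 nM-50 μM). Stimulants: gardiquimod 7.5 μM (TLR7), R848 15.9 μM (TLR8) or ODN2006 5 nM (TLR9). SEAP measured after 22 h at 37° C.; percent inhibition versus agonist-plus-DMSO and known-inhibitor wells.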

[2] = target: T2, human TLR8 (Homo sapiens, UniProt Q9NR97); test: TLR8 inhibition reporter assay (HEK-Blue cells, SEAP reporter, R848 stimulation); conditions: HEK-Blue cells overexpressing human TLR8, SEAP reporter, R848 15.9 μM
T2 construct: host or cells: HEK-Blue cells
T2 sequence (Q9NR97 27-1041): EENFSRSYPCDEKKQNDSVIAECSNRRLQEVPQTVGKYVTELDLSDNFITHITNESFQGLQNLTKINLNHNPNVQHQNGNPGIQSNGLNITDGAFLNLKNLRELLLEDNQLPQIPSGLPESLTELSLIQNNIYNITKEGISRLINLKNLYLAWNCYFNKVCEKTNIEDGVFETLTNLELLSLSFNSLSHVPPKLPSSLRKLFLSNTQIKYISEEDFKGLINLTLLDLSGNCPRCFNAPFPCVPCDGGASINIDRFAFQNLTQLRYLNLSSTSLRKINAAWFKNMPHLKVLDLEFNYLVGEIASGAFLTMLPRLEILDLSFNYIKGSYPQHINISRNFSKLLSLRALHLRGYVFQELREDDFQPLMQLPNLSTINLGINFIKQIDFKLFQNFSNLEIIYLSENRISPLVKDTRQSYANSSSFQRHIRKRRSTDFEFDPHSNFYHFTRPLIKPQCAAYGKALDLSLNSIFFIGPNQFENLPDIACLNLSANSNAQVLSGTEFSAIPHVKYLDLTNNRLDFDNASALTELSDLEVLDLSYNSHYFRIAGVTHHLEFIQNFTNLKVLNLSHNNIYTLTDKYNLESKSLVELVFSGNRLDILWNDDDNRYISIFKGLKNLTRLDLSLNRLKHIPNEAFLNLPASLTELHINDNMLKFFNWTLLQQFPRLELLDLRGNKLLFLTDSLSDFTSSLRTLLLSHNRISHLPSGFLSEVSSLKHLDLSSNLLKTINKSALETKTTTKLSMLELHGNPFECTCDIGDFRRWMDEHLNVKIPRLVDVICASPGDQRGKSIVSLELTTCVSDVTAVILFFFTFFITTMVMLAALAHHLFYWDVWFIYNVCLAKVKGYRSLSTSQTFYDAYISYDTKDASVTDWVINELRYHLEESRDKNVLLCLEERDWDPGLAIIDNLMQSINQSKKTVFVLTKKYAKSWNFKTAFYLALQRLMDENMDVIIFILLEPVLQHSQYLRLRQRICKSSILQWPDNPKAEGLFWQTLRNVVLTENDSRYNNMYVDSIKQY
Summary of the method: as §1

[3] = target: T3, human TLR9 (Homo sapiens, UniProt Q9NR96); test: TLR9 inhibition reporter assay (HEK-Blue cells, SEAP reporter, ODN2006 stimulation); conditions: HEK-Blue cells overexpressing human TLR9, SEAP reporter, ODN2006 5 nM
T3 construct: host or cells: HEK-Blue cells
T3 sequence (Q9NR96 26-1032): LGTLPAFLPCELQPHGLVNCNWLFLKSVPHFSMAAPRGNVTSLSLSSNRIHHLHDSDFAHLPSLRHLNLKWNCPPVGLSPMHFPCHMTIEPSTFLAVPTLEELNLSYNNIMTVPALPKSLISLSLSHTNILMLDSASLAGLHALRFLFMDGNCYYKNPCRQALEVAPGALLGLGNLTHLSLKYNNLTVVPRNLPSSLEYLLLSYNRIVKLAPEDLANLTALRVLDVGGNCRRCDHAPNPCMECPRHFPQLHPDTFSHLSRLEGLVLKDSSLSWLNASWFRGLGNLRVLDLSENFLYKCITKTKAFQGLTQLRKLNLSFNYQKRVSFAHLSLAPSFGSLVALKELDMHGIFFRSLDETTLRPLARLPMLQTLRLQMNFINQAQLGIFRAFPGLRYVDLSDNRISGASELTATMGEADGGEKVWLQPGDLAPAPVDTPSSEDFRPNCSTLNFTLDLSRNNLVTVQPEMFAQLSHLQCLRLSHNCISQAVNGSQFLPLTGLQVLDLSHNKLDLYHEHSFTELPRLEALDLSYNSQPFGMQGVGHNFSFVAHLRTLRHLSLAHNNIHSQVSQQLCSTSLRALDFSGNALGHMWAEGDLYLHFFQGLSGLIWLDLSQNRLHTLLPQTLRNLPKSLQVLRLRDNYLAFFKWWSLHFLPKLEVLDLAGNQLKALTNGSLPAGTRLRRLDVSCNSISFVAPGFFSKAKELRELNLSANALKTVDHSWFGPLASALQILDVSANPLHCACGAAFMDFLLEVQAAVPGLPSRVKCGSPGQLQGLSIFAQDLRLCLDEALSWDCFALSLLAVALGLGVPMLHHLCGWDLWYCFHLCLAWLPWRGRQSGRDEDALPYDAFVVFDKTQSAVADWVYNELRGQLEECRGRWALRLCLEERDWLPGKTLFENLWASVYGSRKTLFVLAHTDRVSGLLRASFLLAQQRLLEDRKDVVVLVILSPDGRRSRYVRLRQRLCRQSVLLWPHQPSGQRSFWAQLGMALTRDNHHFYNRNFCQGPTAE
Summary of the method: as §1

IC50 [1]: 6 nM
IC50 [2]: 4.9 nM
IC50 [3]: 5120 nM
Compound: Cc1c(-c2[nH]c3ccc(C4CN(CC(=O)N(C)C)C4)cc3c2C(C)C)cn2ncnc2c1C [Example 556]

IC50 [1]: 2 nM
IC50 [2]: 7.9 nM
IC50 [3]: 4630 nM
Compound: COc1cc(-c2[nH]c3ccc(C4CCCNC4)cc3c2C(C)C)cn2ncnc12 (single isomer, unassigned) [Example 183]

IC50 [1]: 7 nM
IC50 [2]: 50 nM
IC50 [3]: 4410 nM
Compound: CNC1CCC(c2ccc3[nH]c(-c4cn5cnnc5c(C)c4C)c(C(C)C)c3c2)CC1 (stereo not drawn) [Example 525]

IC50 [1]: 43 nM
IC50 [2]: 14 nM
IC50 [3]: 38300 nM
Compound: Cc1c(-c2[nH]c3ccc(C4CCC(NC(=O)CN(C)C)CC4)cc3c2C(C)C)cn(C)c(=O)c1C (stereo not drawn) [Example 471]

IC50 [1]: 0.7 nM
IC50 [2]: 1.6 nM
IC50 [3]: 2130 nM
Compound: COc1cc(-c2[nH]c3ccc(C4CCC(N(C)C5CC5)CC4)cc3c2C(C)C)cn2ncnc12 (stereo not drawn) [Example 12]

IC50 [1]: 37 nM
IC50 [2]: 73 nM
IC50 [3]: 3130 nM
Compound: COc1ccc(-c2[nH]c3ccc(C4CCC5CC(C4)N5)cc3c2C(C)C)cc1OC (stereo not drawn) [Example 279, 3-(2-(3.4-dimethoxyphenyl)-3-isopropyl-1H-indol-5-yl)-7-azabicyclo[4.1.1]octane]

IC50 [1]: 8 nM
IC50 [2]: 8.7 nM
IC50 [3]: 1010 nM
Compound: Cc1cc(-c2[nH]c3ccc(C4CCN(C(=O)CN(C)C)C4)cc3c2C(C)C)cc(C)n1 (stereo not drawn) [Example 591]

IC50 [1]: 164 nM
IC50 [2]: 354 nM
IC50 [3]: 527 nM
Compound: CCc1c(-c2ccc(OC)c(OC)c2)[nH]c2ccc(CN3CC4CNCC4C3)cc12 (stereo not drawn) [Example 391]

Second part, the molecule before the results:

Compound: COc1cc(-c2[nH]c3ccc(C4CC(N)C4)cc3c2C(C)C)cn2ncnc12 (stereo not drawn) [Example 568]
IC50 [1]: 0.53 nM
IC50 [2]: 0.76 nM
IC50 [3]: 980 nM

Compound: CCc1c(-c2ccnc(C)c2)[nH]c2ccc(CNC(=O)CCC3CCNCC3)cc12 [Example 444]
IC50 [1]: 3060 nM
IC50 [2]: 9240 nM
IC50 [3]: 4960 nM

Compound: CNCC(=O)N1CCOC(c2ccc3[nH]c(-c4cn5ncnc5c(C)c4C)c(C(C)C)c3c2)C1 (stereo not drawn) [Example 340]
IC50 [1]: 2 nM
IC50 [2]: 5.1 nM
IC50 [3]: 4830 nM

Compound: COc1cc(-c2[nH]c3ccc(C4CCC(N(C)OC)CC4)cc3c2C(C)C)cn2ncnc12 (stereo not drawn) [Example 99]
IC50 [1]: 7 nM
IC50 [2]: 53 nM
IC50 [3]: 15300 nM

Compound: Cc1c(-c2[nH]c3ccc(C4CCC(N(C)CCS(C)(=O)=O)CC4)cc3c2C(C)C)cn2ncnc2c1C (stereo not drawn) [Example 151]
IC50 [1]: 0.62 nM
IC50 [2]: 0.37 nM
IC50 [3]: 3340 nM

Compound: COc1cc(-c2[nH]c3ccc(C4CCC(NCC(N)=O)CC4)cc3c2C(C)C)cn2ncnc12 (stereo not drawn) [Example 107]
IC50 [1]: 0.22 nM
IC50 [2]: 1.5 nM
IC50 [3]: 1390 nM

Compound: CNCC(=O)N1CC(c2ccc3[nH]c(-c4cc(OC)c5ncnn5c4)c(C(C)C)c3c2)C1 [Example 268]
IC50 [1]: 0.72 nM
IC50 [2]: 5.9 nM
IC50 [3]: 396 nM

Compound: COc1cc(-c2[nH]c3ccc(C4CCC(NCC(=O)NC5COC5)CC4)cc3c2C(C)C)cn2ncnc12 (stereo not drawn) [Example 165]
IC50 [1]: 0.31 nM
IC50 [2]: 1.7 nM
IC50 [3]: 1990 nM

Compound: CNCC(=O)N1CCCC(c2ccc3[nH]c(-c4cn5ncnc5c(C)c4C)c(C(C)C)c3c2)C1 (stereo not drawn) [Example 214]
IC50 [1]: 2 nM
IC50 [2]: 2.9 nM
IC50 [3]: 5880 nM

Compound: COc1cc(-c2[nH]c3ccc(C4CC5CN(CC(=O)N(C)C)CC5C4)cc3c2C(C)C)cn2ncnc12 (stereo not drawn) [Example 509]
IC50 [1]: 0.27 nM
IC50 [2]: 2.4 nM
IC50 [3]: 2340 nM

Compound: COCCC(=O)N1CCCC(c2ccc3[nH]c(-c4cc(C)nc(C)c4)c(C(C)C)c3c2)C1 (stereo not drawn) [Example 207]
IC50 [1]: 24 nM
IC50 [2]: 97 nM
IC50 [3]: 43500 nM

Compound: COc1cc(-c2[nH]c3ccc(C4CN(C(=O)CN(C)C)C(C)(C)CO4)cc3c2C(C)C)cn2ncnc12 (stereo not drawn) [Example 374]
IC50 [1]: 20 nM
IC50 [2]: 110 nM
IC50 [3]: 5900 nM

Compound: Cc1cc(-c2[nH]c3ccc(C4CN(CC5(C)COC5)CCO4)cc3c2C(C)C)cn2ncnc12 (stereo not drawn) [Example 291]
IC50 [1]: 20 nM
IC50 [2]: 26 nM
IC50 [3]: > 50000 nM

Compound: Cc1c(-c2[nH]c3ccc(C4CN(CC(C)C)C4)cc3c2C(C)C)cn2cnnc2c1C [Example 549]
IC50 [1]: 6 nM
IC50 [2]: 9.3 nM
IC50 [3]: 2190 nM

Compound: COc1cc(-c2[nH]c3ccc(C4CCC(N(C)C(C)C)C4)cc3c2C(C)C)cn2ncnc12 (single isomer, unassigned) [Example 275, N-isopropyl-3-(3-isopropyl-2-(8-methoxy-[1,2,4]triazolo[1,5-a]pyridin-6-yl)-1H-indol-5-yl)-N-methylcyclopentan-1-amine]
IC50 [1]: 0.86 nM
IC50 [2]: 0.23 nM
IC50 [3]: 1270 nM

Compound: Cc1c(-c2[nH]c3ccc(C4CNC4)cc3c2C(C)C)cn2cnnc2c1C [Example 531]
IC50 [1]: 57 nM
IC50 [2]: 137 nM
IC50 [3]: 10200 nM

Compound: Cc1c(-c2[nH]c3ccc(C4CCCNC4)cc3c2C(C)C)cn2ncnc2c1C (stereo not drawn) [Example 190]
IC50 [1]: 0.43 nM
IC50 [2]: 0.35 nM
IC50 [3]: 851 nM
